Data on three molecules can be found in patent publication US9556231B2, “Beta-hairpin peptidomimetics as CXC4 antagonists” (POLYPHOR AG, priority 2011, dated 2017).

Read-outs that look alike come from different tables or passages of the source. Bridge positions count the residues as written; N and C are the ends. Square brackets hold non-standard residues; d marks the D form. Peptide text beside a SMILES is read from it. Lys(iPr) = CC(C)NCCCC[C@H](N)C(=O)O; Orn(iPr) = CC(C)NCCC[C@H](N)C(=O)O; Dab = NCC[C@H](N)C(=O)O

Series [1] is described as follows: Cytotoxicity, MTT reduction assay, COS-7 cells. The format is cell-based. The following applies: African green monkey. The procedure: Namalwa cells (CXCR4 natively expressing non-adherent cells, ATCC CRL-1432) were cultured in RPMI1640 plus 10% FBS, and pen/strept. HELA cells were maintained in RPMI1640 plus 10% FBS, pen/strept and 2 mM L-glutamine. Cos-7 cells were grown in DMEM medium with […] glucose supplemented with 10% FCS, pen/strept and 2 mM L-glutamine. All cell lines were grown at 37° C. at 5% CO2. Cell media, media supplements, PBS-buffer, HEPES, antibiotic/antimycotic, pen/strept, non essential amino acid, L-glutamine, β-mercaptoethanol and sera were purchased from Gibco (Pailsey, UK). All fine chemicals were supplied by Merck (Darmstadt, Germany).
The cytotoxicity of the peptides to HELA cells (Acc57) and COS-7 cells (CRL-1651) was determined using the MTT reduction assay (T. Mossman, J. Immunol. Meth. 1983, 65, 55-63; M. V. Berridge, A. S. Tan, Arch. Biochem. Biophys. 1993, 303, 474-482). Briefly, the method was as follows: 4000 HELA cells/well and 3400 COS-7 cells/well were seeded and grown in 96-well microtiter plates for 24 h at 37° C. at 5% CO2. Thereafter, time zero (Tz) was determined by MTT reduction (see below). The supernatant of the remaining wells was discarded, and fresh medium and compounds in serial dilutions (12.5, 25 and 50 μM, triplicates; 0 μM, blank) were pipetted into the wells. After incubation of the cells for 48 h at 37° C. at 5% CO2 the supernatant was discarded again and 100 μL MTT reagent (0.5 mg/mL in RPMI1640 and DMEM, respectively)/well was added. Following incubation at 37° C. for 2-4 h the media were aspirated and the cells were spiked (100 μL isopropanol/well). The absorbance of the solubilized formazan was measured at 595 nm (OD595peptide). For each concentration averages were calculated from triplicates. The percentage of growth was calculated as follows: (OD595peptide−OD595Tz)/(OD595blank−OD595Tz)×100%. The GI50 (Growth Inhibition) concentrations were calculated for each peptide by using a trend line function for the concentrations (50, 25, 12.5 and 0 μM), the corresponding percentages and the value 50, (=TREND (C50:C0,%50:%0,50).

The nature of series [2]: Plasma stability, mouse plasma. The format is in vitro ADME. The following applies: 37° C.; for mouse pl. T1/2: up to 1440 min. As to the method: The stability of the peptides in human and mouse plasma was determined by applying the following method: 346.5 μL/deep well of freshly thawed human plasma (Basler Blutspende-dienst) and mouse plasma (Harlan Sera-Lab, UK), respectively, were spiked with 3.5 μL/well of compound dissolved in DMSO/H2O (90/10 [v/v], 1 mM, triplicate) and incubated at 37° C. At t=0, 15, 30, 60, 120, 240 and 1440 min aliquots of 50 μL were transferred to filtration plate wells containing 150 μL/well of 2% formic acid in acetonitrile. Following shaking for 2 min the occurred suspensions were filtrated by vacuum. 100 μL of each filtrate were transferred to a propylene microtiter plate and dried under N2. The residual solids were reconstituted by adding 100 μL/well of water/acetonitrile, 95/5 (v/v)+0.2% formic acid and analyzed by LC/MS as follows: Column: Waters, XBridge C18, mobile phases: (A) water+0.1% formic acid and (B) acetonitrile/water, 95/5 (v/v)+0.1% formic acid, gradient: 5%-100% (B) in 1.8 minutes, electrospray ionization, MRM detection (triple quadrupole). The peak areas were determined and triplicate values are averaged. The stability is expressed in percent of the initial value at t=0·(tx/t0×100). By using the TREND function of EXCEL (Microsoft Office 2003) T1/2 were determined.

Series [3] is described as follows: Pharmacokinetic study (PK), i.v., CD-1 mice. Format: in vivo. The following applies: male, CD-1, in vivo, iv, mouse, i.v. 1 mg/kg; for level at 0.083 h / level at 0.25 h / level at 0.5 h / level at 1 h / level at 2 h / level at 3 h / level at 4 h: read-out: Calc. Conc. (plasma); for AUC(0-inf) / Cmax / clearance / half-life / Vd: one-compartmental model; for Vd: read-out: Vdis. The procedure:
For the compounds of Ex. 1, Ex. 2, Ex. 3, Ex. 4, Ex. 5 and Ex. 6 pharmacokinetic studies after intravenous (i.v.) administration were performed.
30 grams (±20%) male CD-1 mice obtained from Charles River Laboratories Deutschland GmbH were used. The vehicle, phosphate buffered saline, was added to give a final concentration of 0.5 mg/mL of the compound. The volume was 2 mL/kg and the compound was injected to give a final intravenous dose of 1 mg/kg. Approximately 300-400 μL of blood was removed under light isoflurane anesthesia by cardiac puncture at predetermined time intervals (5, 15, 30 min and 1, 2, 3, 4, hours) and added to heparinized tubes. Plasma was removed from pelleted cells upon centrifugation and frozen at −80° C. prior to HPLC-MS analysis.
Aliquots of 50 μL each of mouse plasma of untreated aminals (“blank” mouse plasma) were spiked with known amounts of the compounds Ex. 1, Ex. 2, Ex. 3, Ex. 4, Ex. 5 and Ex. 6 in order to obtain 10 plasma calibration samples for each compound in the range 1-4000 ng/mL. Aliquots of 50 μL each of mouse plasma from treated animals were used as plasma study samples.
All plasma samples were spiked with an appropriate internal standard and extracted with acetonitrile containing 2% formic acid. Supernatants were evaporated to dryness under nitrogen and the remaining solids reconstituted in water/acetonitrile 95/5 (v/v)+0.2% formic acid.
Extracts were then analyzed by reverse-phase chromatography (Acquity BEH C18, 100×2.1 mm, 1.7 μm column, Waters for Ex. 1 and Acquity HSS C18 SB, 100×2.1 mm, 1.8 μm column, Waters for Ex. 2, Ex. 3, Ex. 4, Ex. 5 and Ex. 6), using the following conditions: Ex. 1, mobile phases: (A) water/acetonitrile 95/5 (v/v)+0.1% formic acid, (B) acetonitrile/water 95/5 (v/v)+0.1% formic acid, gradient: 1% (B) 0-0.1 min, 15% (B) 0.1-2.5 min for Ex. 1 and 1% (B) 0-0.1 min, 40% (B) 0.1-2.5 min for Ex. 2, Ex. 3, Ex. 4, Ex. 5 and Ex. 6. The detection and quantification was performed by mass spectrometry, with electrospray interface in positive mode and selective fragmentation of analytes (4000 Q Trap mass spectrometer, AB Sciex).
PK parameters were calculated by WinNonLin™ software version 5.3 (Pharsight-A Certara™ Company, Mountain View, Calif. 94041 USA) using a one-compartmental model analysis. PK parameters were determined by least-square fitting of the model to the experimental data.

The mark [4] stands for this setting: 1440 min, read-out: mouse pl. cpd left at 1440 min.

By GI50 is commonly meant the concentration at which growth is held to half of that of the control. As a reminder, the AUC(0-inf) is total exposure, with the tail of the curve extrapolated. Usually Cmax stands for the peak of the concentration-time curve. By clearance is commonly meant the rate of elimination divided by the concentration. The term half-life denotes the time needed for the level to fall by half in the phase considered. Consider `CC(C)NCCCC[C@@H]1NC(=O)[C@H](CCC(N)=O)NC(=O)[C@H](Cc2ccc(O)cc2)NC(=O)[C@@H]2CSSC[C@H](NC(=O)[C@H](Cc3ccc(O)cc3)NC(=O)[C@H](Cc3c[nH]cn3)NC(=O)[C@H](Cc3ccc(O)cc3)NC(=O)[C@@H]3CCCN3C(=O)[C@H]3CCCN3C1=O)C(=O)N[C@@H](CO)C(=O)N[C@@H](C)C(=O)N1CCC[C@@H]1C(=O)N[C@@H](CCCNC(C)C)C(=O)N[C@@H](CCCNC(=N)N)C(=O)N[C@@H](Cc1ccc(O)cc1)C(=O)N2` [Ex. 1, cyclo(-Tyr^1-His^2-Tyr^3-Cys^4-Ser^5-Ala^6-^DPro^7-Orn(iPr)^8-Arg^9-Tyr^10-Cys^11-Tyr^12-Gln^13-Lys(iPr)^14-^DPro^15-Pro^16-) disulfide bond between Cys^4 and Cys^11] (cyclo(YHYCSA[dP][Orn(iPr)]RYCYQ[Lys(iPr)][dP]P); disulfide 4-11), for which the GI50 at 48 h in series [1] was over 50 µM. In addition, in series [2] (setting [4]), the remaining at 24 h was determined as 100%. For the same molecule, in series [2], the “mouse pl. T1/2” value was 1440 min. For the same molecule, in series [3], the level at 0.083 h is 1720 ng/mL, the level at 0.25 h is 989 ng/mL, the level at 0.5 h is 947 ng/mL and the level at 1 h is 373 ng/mL. In addition, in series [3], the level at 2 h is 129 ng/mL, the level at 3 h is 15 ng/mL, the AUC(0-inf) was 1150 ng·h/mL and the Cmax is 1830 ng/mL. Also, in series [3], the clearance is 14.5 mL/min/kg, the half-life was 24 min and the Vd worked out at 0.547 L/kg.

In series [1], `COc1ccc(C[C@@H]2NC(=O)[C@H](Cc3c[nH]cn3)NC(=O)[C@H](Cc3ccc(O)cc3)NC(=O)[C@@H]3CCCN3C(=O)[C@H]3CCCN3C(=O)[C@H](CCCCNC(C)C)NC(=O)[C@H](CCC(N)=O)NC(=O)[C@H](Cc3ccc(O)cc3)NC(=O)[C@@H]3CSSC[C@H](NC2=O)C(=O)N[C@@H](CO)C(=O)N[C@@H](C)C(=O)N2CCC[C@@H]2C(=O)N[C@@H](CCCNC(C)C)C(=O)N[C@@H](CCCNC(=N)N)C(=O)N[C@@H](Cc2ccc(O)cc2)C(=O)N3)cc1` [Ex. 2, cyclo(-Tyr^1-His^2-Tyr(Me)^3-Cys^4-Ser^5-Ala^6-^DPro^7-Orn(iPr)^8-Arg^9-Tyr^10-Cys^11-Tyr^12-Gln^13-Lys(iPr)^14-^DPro^15-Pro^16-), disulfide bond between Cys^4 and Cys^11] (cyclo(YHY(Me)CSA[dP][Orn(iPr)]RYCYQ[Lys(iPr)][dP]P); disulfide 4-11) displayed a GI50 at 48 h of over 50 µM. Further, in series [2] (setting [4]), the remaining at 24 h was 100%. In addition, in series [2], the “mouse pl. T1/2” value is 1440 min. Moreover, in series [3], the level at 0.083 h is 1430 ng/mL, the level at 0.25 h is 1300 ng/mL, the level at 0.5 h is 836 ng/mL and the level at 1 h was 578 ng/mL. Moreover, in series [3], the level at 2 h was 234 ng/mL, the level at 3 h was 68 ng/mL, the level at 4 h is 22 ng/mL and the AUC(0-inf) stood at 1520 ng·h/mL. Also, in series [3], the Cmax turned out to be 1580 ng/mL, the clearance is 11 mL/min/kg, the half-life was 42 min and the Vd was found to be 0.635 L/kg.

Consider `CC(C)NCCCC[C@@H]1NC(=O)[C@H](CCC(N)=O)NC(=O)[C@H](Cc2ccc(O)cc2)NC(=O)[C@@H]2CSSC[C@H](NC(=O)[C@H](C)NC(=O)[C@H](Cc3c[nH]cn3)NC(=O)[C@H](Cc3ccc(O)cc3)NC(=O)[C@@H]3CCCN3C(=O)[C@H]3CCCN3C1=O)C(=O)N[C@@H](CO)C(=O)N[C@@H](C)C(=O)N[C@H](Cc1ccc(O)cc1)C(=O)N[C@@H](CCN)C(=O)N[C@@H](CCCNC(=N)N)C(=O)N[C@@H](Cc1ccc(O)cc1)C(=O)N2` [Ex. 3, cyclo(-Tyr^1-His^2-Ala^3-Cys^4-Ser^5-Ala^6-^DTyr^7-Dab^8-Arg^9-Tyr^10-Cys^11-Tyr^12-Gln^13-Lys(iPr)^14-^DPro^15-Pro^16-), disulfide bond between Cys^4 and Cys^11] (cyclo(YHACSA[dY][Dab]RYCYQ[Lys(iPr)][dP]P); disulfide 4-11), for which the concentration for 50% growth inhibition (GI50) at 48 h in series [1] (MTT, 48 h, up to 50 μM, read-out: Cytotoxicity Cos-7 Cells GI50) was over 50 µM. For the same molecule, the remaining at 24 h, 10 μM in series [2] (setting [4]) was 98%. The “mouse pl. T1/2” value in series [2] came to 1440 min. Besides, in series [3], the level at 0.083 h is 1170 ng/mL, the level at 0.25 h was 999 ng/mL, the level at 0.5 h was 442 ng/mL and the level at 1 h was 402 ng/mL. Further, in series [3], the level at 2 h was 136 ng/mL, the level at 3 h is 26 ng/mL, the level at 4 h was 12 ng/mL and the area under the curve AUC(0-inf) worked out at 898 ng·h/mL. Also, in series [3], the concentration peaked (Cmax) at 1310 ng/mL, the clearance was 18.6 mL/min/kg, the half-life is 30 min and the Vd was 0.762 L/kg.
